Laboratory results from publication PMC9891166, “Derivatives of 4-methyl-1,2,3-benzoxathiazine 2,2-dioxide as selective inhibitors of human carbonic anhydrases IX and XII over the cytosolic isoforms I and II” (Journal of Enzyme Inhibition and Medicinal Chemistry, 2023).
Like-named read-outs stand apart in the source and are kept apart here.

Experiments:
Test in all cases: stopped-flow CO2 hydration assay
Format in all cases: biochemical
hCA I = target: T1, hCA I (Homo sapiens, UniProt P00915); settings: read-out: KI (nM)^a,b / hCA I
T1 construct: gene CA1; recombinant, obtained in-house as reported earlier; cytosolic
T1 sequence (P00915 2-261): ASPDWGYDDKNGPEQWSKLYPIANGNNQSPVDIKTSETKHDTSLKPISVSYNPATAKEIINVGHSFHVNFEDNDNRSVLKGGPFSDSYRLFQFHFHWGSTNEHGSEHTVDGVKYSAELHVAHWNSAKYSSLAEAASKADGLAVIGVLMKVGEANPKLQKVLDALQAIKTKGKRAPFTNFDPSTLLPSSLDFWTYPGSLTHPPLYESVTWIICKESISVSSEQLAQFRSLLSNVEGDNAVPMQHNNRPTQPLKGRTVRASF
From the text: stopped-flow CO2 hydration assay on hCA I

hCA II [1] = target: T2, hCA II (Homo sapiens, UniProt P00918); settings: read-out: KI (nM)^a,b / hCA II
T2 construct: gene CA2; recombinant, obtained in-house as reported earlier; cytosolic
From the text: stopped-flow CO2 hydration assay on hCA II

hCA II [2] = target: T2, hCA II; settings: read-out: KI (nM)^a,b / hCA I

Row | Compound | Ki (hCA I) [nM] | Ki (hCA II [1]) [nM] | Ki (hCA II [2]) [nM]
1 | CC1=NS(=O)(=O)Oc2ccc(C)cc21 [2b, 4,6-Dimethyl-1,2,3-benzoxathiazine 2,2-dioxide] | 21000 | 457 | 
2 | CCOC(=O)c1ccc(-c2ccc3c(c2)OS(=O)(=O)N=C3C)cc1 [5j, Ethyl 4–(4-methyl-2,2-dioxido-1,2,3-benzoxathiazin-7-yl)benzoate] | > 100000 | 6780 | 
3 | CC1=NS(=O)(=O)Oc2ccc(Br)cc21 [2e, 6-Bromo-4-methyl-1,2,3-benzoxathiazine 2,2-dioxide] | > 100000 | 5570 | 
4 | CC1=NS(=O)(=O)Oc2ccc(Cl)cc21 [2d, 6-Chloro-4-methyl-1,2,3-benzoxathiazine 2,2-dioxide] | 45700 | 634 | 
5 | CC1=NS(=O)(=O)Oc2cc(Cl)ccc21 [2i, 7-Chloro-4-methyl-1,2,3-benzoxathiazine 2,2-dioxide] | 82100 | 1660 | 
6 | CC1=NS(=O)(=O)Oc2ccc(-c3ccccc3)cc21 [5a, 4-Methyl-6-phenyl-1,2,3-benzoxathiazine 2,2-dioxide] | 60600 | 936 | 
7 | CC1=NS(=O)(=O)Oc2cc(-c3ccc(F)cc3)ccc21 [5g, 7–(4-Fluorophenyl)-4-methyl-1,2,3-benzoxathiazine 2,2-dioxide] | > 100000 | 5370 | 
8 | CC1=NS(=O)(=O)Oc2ccc(-c3ccc(F)cc3)cc21 [5b, 6–(4-Fluorophenyl)-4-methyl-1,2,3-benzoxathiazine 2,2-dioxide] | 24500 | 1530 | 
9 | COc1cccc2c1C(C)=NS(=O)(=O)O2 [2a, 5-Methoxy-4-methyl-1,2,3-benzoxathiazine 2,2-dioxide] | > 100000 |  | > 100000
10 | CC1=NS(=O)(=O)Oc2cc(-c3ccccc3)ccc21 [5f, 4-Methyl-7-phenyl-1,2,3-benzoxathiazine 2,2-dioxide] | > 100000 | 2360 | 

Other lines, results leading:

Row | Ki (hCA I) [nM] | Ki (hCA II [1]) [nM] | Ki (hCA II [2]) [nM] | Compound
11 | 33200 | 788 |  | CC1=NS(=O)(=O)Oc2cc(C)ccc21 [2f, 4,7-Dimethyl-1,2,3-benzoxathiazine 2,2-dioxide]
12 | > 100000 | 4530 |  | CC1=NS(=O)(=O)Oc2ccc(-c3ccc(Cl)c(Cl)c3)cc21 [5d, 6–(3,4-Dichlorophenyl)-4-methyl-1,2,3-benzoxathiazine 2,2-dioxide]
13 | 70500 | 7120 |  | COc1ccc(-c2ccc3c(c2)C(C)=NS(=O)(=O)O3)cc1 [5c, 6–(4-Methoxyphenyl)-4-methyl-1,2,3-benzoxathiazine 2,2-dioxide]
14 | > 100000 | 3170 |  | COc1ccc(-c2ccc3c(c2)OS(=O)(=O)N=C3C)cc1 [5h, 7–(4-Methoxyphenyl)-4-methyl-1,2,3-benzoxathiazine 2,2-dioxide]
15 | 12400 | 229 |  | CC1=NS(=O)(=O)Oc2ccc(F)cc21 [2c, 6-Fluoro-4-methyl-1,2,3-benzoxathiazine 2,2-dioxide]
16 | 19600 | 8250 |  | CCOC(=O)c1ccc(-c2ccc3c(c2)C(C)=NS(=O)(=O)O3)cc1 [5e, Ethyl 4–(4-methyl-2,2-dioxido-1,2,3-benzoxathiazin-6-yl)benzoate]
17 | > 100000 | 10000 |  | CC1=NS(=O)(=O)Oc2cc(-c3ccc(Cl)c(Cl)c3)ccc21 [5i, 7–(3,4-Dichlorophenyl)-4-methyl-1,2,3-benzoxathiazine 2,2-dioxide]
18 | 10500 | 284 |  | CC1=NS(=O)(=O)Oc2cc(F)ccc21 [2h, 7-Fluoro-4-methyl-1,2,3-benzoxathiazine 2,2-dioxide]
19 | 24900 | 559 |  | COc1ccc2c(c1)OS(=O)(=O)N=C2C [2g, 7-Methoxy-4-methyl-1,2,3-benzoxathiazine 2,2-dioxide]
20 | > 100000 | 11500 |  | CC1=NS(=O)(=O)Oc2cc(Br)ccc21 [2j, 7-Bromo-4-methyl-1,2,3-benzoxathiazine 2,2-dioxide]
